Source: patent publication US20120232025A1, “SAFENER DRUG COMBINATIONS FOR USE WITH NMDA […]” (priority 2010, published 2012)
Like-named read-outs stand apart in the source and are kept apart here.

Key:
[1] = system: neurotoxic side effects of MK-801 or phencyclidine; details: cited from earlier work
psychotomimetic effects = details: cited from earlier work
cerebrocortical neurons [2] = assay: vacuole formation / neurotoxic damage in rat brain after NMDA antagonist administration; details: for vacuole-forming ED100 dosage: intraperitoneal injection, aging female rats, vacuole response in 100% of animals; for potency relative to MK-801 (from ED100 numbers): vacuole formation / NMDA receptor blocker ranking, fraction of MK-801 potency
Description: First, that dosage is based on intraperitoneal injection. […] This is a simple, quick, and convenient mode of injection, and it is widely used in research. If desired, intravenous injection in rats can be performed by using the tail vein, but that is slower, more tedious, more difficult, and more prone to experimental error.
This runs contrary to most types of drug tests on rats, in which females tend to be avoided, because of potentially uncontrolled variables created by reproductive hormones. Most female rats that have been used, in tests done to date, are retired breeders, with ages of about 7 months or more.
For convenience, to avoid having to use subscript fonts or notations, terms such as […] also can be written as ED-100, or simply as […].
Whenever a term such as ED100 is being used, it requires an understanding of any essential factors that should be known by any researchers who might try to perform similar tests. In this situation, researchers would need to know the route of administration (intraperitoneal injection), and the types of animals used to determine the ED100 level (i.e., aging female rats).

depressive symptoms = details: cited from earlier work
neuropathic pain [3] = details: cited from earlier work
cerebrocortical neurons [4] = details: rats, persistent administration of the NMDA antagonist; cited from earlier work
[5] = as an anesthetic; cited from earlier work
[6] = system: neurotoxic side effects of MK-801 or phencyclidine; assay: safener protection against neurotoxic side effects (vacuole formation) of NMDA antagonists; type: in vivo, rat
neuropathic pain [7] = assay: animal models of neuropathic pain; type: in vivo
[8] = system: excitotoxic neurodegeneration; assay: standard animal models of excitotoxic neurodegeneration; type: in vivo; details: only at very high doses that cause severe functional and behavioral disturbances
Description: However, it may well be that such concerns, by the Applicants, are not especially serious or acute, in view of the relatively low dosages of memantine that are actually being administered to Alzheimer patients. The Applicants have tested memantine, in animals, to measure and quantify its ability to protect against excitotoxic neurodegeneration, using several standard animal models that are used to test and measure excitotoxic neurodegeneration. […] Therefore, it is very unlikely that memantine is being administered, to Alzheimer patients, at dosages that are actually high enough to prevent excitotoxic neurodegeneration, since the dosages being used in human patients are not causing the types of observable functional disturbances that have been seen when anti-excitotoxic dosages are administered.

Alzheimer's disease = details: cited from earlier work
neuropathic pain [9] = details: cited from earlier work; remark: listed apart in the source

In the case of N=C(N)N/N=C/c1c(Cl)cccc1Cl [guanabenz], the “neurotoxic effects of NMDA antagonists in animals” value (shortened to “neurotoxic effects”) [1] is listed as “suppressed or prevented” and the “psychotomimetic effects of NMDA antagonists in humans” value (from here on “psychotomimetic effects”) (psychotomimetic effects) is listed as “suppressed or prevented”.

In the case of CNC1(c2ccccc2Cl)CCCCC1=O (racemic) [ketamine], the “potency relative to phencyclidine (from ED100 numbers)” value (cerebrocortical neurons [2]; fraction of phencyclidine potency) is reported as “about 1/10”, the “vacuole-forming ED100 dosage” value (cerebrocortical neurons [2]) is reported as 40 mg/kg and the “potency relative to MK-801 (from ED100 numbers)” value (cerebrocortical neurons [2]) is reported as “about 1/100”. The “relief from depressive symptoms” value (depressive symptoms; intravenous infusion for 40 minutes, small group (Berman et al 2000)) was “transient but significant relief”, the “relief from depressive symptoms” value (depressive symptoms; prolonged subanesthetic intravenous infusion up to 4 days, 2 patients (Correll et al 2005)) was “rapid and lasting relief” and the “time to relief from depressive symptoms after infusion” value (depressive symptoms; single 40 minute intravenous infusion, treatment resistant depression (Zarate et al 2006b)) was “less than 2 hours”. For the same compound, the “duration of remission of symptoms” value (depressive symptoms; single 40 minute intravenous infusion, significant number of patients (Zarate et al 2006b)) was “up to a week”, the side effects (neuropathic pain [3]; continuous subcutaneous infusion, one patient (Backonja et al 1994)) was “intolerable cognitive and memory side effects” and the side effects (neuropathic pain [3]; single-dosage injections, six patients (Backonja et al 1994)) was “mild and well tolerated”. For the same compound, the side effects (neuropathic pain [3]; subcutaneous injections over 7 days and nights (Eide et al 1995)) was “intolerable side effects”.

In the case of [N-]=[N+]=O [nitrous oxide], the “time after which irreversible changes inside animal brains begin to manifest” value (cerebrocortical neurons [4]) is listed as “about 8 hours”.

For CN[C@]1(c2ccccc2Cl)CCCCC1=O [S-ketamine], the “anesthetic potency relative to R-ketamine” value [5] is given as “about twice as potent”.

In the case of CN(C)CCC=C1c2ccccc2CCc2ccccc21 [amitriptyline], the “safening activity against neurotoxic side effects of MK-801” value ([6]; coadministered with MK-801, unpublished experiments) is reported as “substantial safening activity”, the neuropathic pain-relieving activity (neuropathic pain [7]; animal models, administered by itself) is reported as “neuropathic pain-relieving activity” and the “effect on neuropathic pain-relieving activity of memantine” value (neuropathic pain [7]; coadministered with memantine) is reported as “potentiated”.

For c1ccc(C2(N3CCCCC3)CCCCC2)cc1 [phencyclidine], the “vacuole-forming ED100 dosage” value (cerebrocortical neurons [2]) was 4.0 mg/kg and the “potency relative to MK-801 (from ED100 numbers)” value (cerebrocortical neurons [2]) was “about 1/10”.

For Nc1nnc(-c2cccc(Cl)c2Cl)c(N)n1 [lamotrigine], the “neurotoxic effects” value [1] is listed as “suppressed or prevented” and the “psychotomimetic effects” value (psychotomimetic effects) is listed as “suppressed or prevented”.

In the case of O=C(CCCN1CCC(O)(c2ccc(Cl)cc2)CC1)c1ccc(F)cc1 [haloperidol], the “prevention of NMDA antagonist-induced vacuole formation” value ([6]; test animals, given at the same time as the NMDA antagonist, clinically relevant dosages) is given as “could not prevent” and the “safening potency compared with sigma-selective drugs” value ([1]; required substantially higher dosages) is given as “not as potent or effective”.

For Nc1nc2ccc(OC(F)(F)F)cc2s1 [riluzole], the “benefit in major depression” value (depressive symptoms; Zarate et al 2004) is given as “beneficial”.

In the case of CC12CC3CC(C)(C1)CC(N)(C3)C2 [memantine], the “protection against excitotoxic damage” value [8] is given as “some level of protection against excitotoxic damage”, the “improvement in depressive symptoms” value (depressive symptoms; 20 mg/day, 8 weeks, severe chronic depression (Zarate et al 2006a)) is given as “no signs of improvement” and the “further deterioration of cognitive function” value (Alzheimer's disease; Alzheimer patients) is given as “did not prevent further deterioration”. For the same compound, the “global assessment of cognition and ability to manage daily activities” value (Alzheimer's disease; low dose, middle-stage Alzheimer patients) was “transient and slight improvements”.

For CN1CCN(C2=Nc3cc(F)ccc3Cc3ccccc32)CC1 [fluperlapine], the “reduction of toxic side effects of MK-801 and PCP” value ([1]; tests on rats) is given as “reduce the toxic side effects”.

In the case of Clc1cccc(Cl)c1N=C1NCCN1 [clonidine], the “neurotoxic effects” value [1] is given as “suppressed or prevented”, the “effect on MK-801's neuropathic pain-relieving activity” value (neuropathic pain [9]; administered together with MK-801) is given as “potentiates” and the “neuropathic pain relieving activity” value (neuropathic pain [9]; alone) is given as “neuropathic pain relieving activity”. The “psychotomimetic effects” value (psychotomimetic effects) was “suppressed or prevented”.

For OC(CCN1CCCC1)(c1ccccc1)C1CCCCC1 (stereo not shown) [procyclidine], the “relief for neuropathic pain” value (neuropathic pain [9]; animal models, reported in journals) is given as “offers relief for neuropathic pain”.
